Experimental data: patent US5545755A, “Therapeutically useful 2-aminotetralin derivatives” (priority 1995, dated 1996)
Structures can show the parent of a compound that is named as a salt. Where two headings read alike, the source gives them in different places.

Columns and labels:
[1] = Hypothermia in mice after subcutaneous injection; format: in vivo; conditions: Mus musculus, sc, dose depressing temperature by 2° C. in two of four mice
Procedure: Hypothermia: Starting with a dose of 30 mg/kg, four mice are injected subcutaneously with test compound. Twenty minutes later, the number of animals whose body temperature has decreased by 2° C. or more are counted. […] The time for last statistically significant drug affect on mean body temperature is indicated in minutes. […] Potency is given as mg/kg ED50 (dose required to depress temperature in two of four mice) as measured by Spearman-Karber statistics.

[2] = tested on: sympathetic nerve discharge; assay: Sympathetic Nerve Discharge (SND) in chloralose anesthetized cats; format: in vivo; conditions: Felis catus, iv, dose causing 50% depression in SND
Procedure: Sympathetic Nerve Discharge (SND): The i.v. mg/kg dose causing a 50% depression in SND in chloralose anesthetized cats and the maximum inhibition of sympathetic activity observed in the dose range tested (0.001-1.0 mg/kg i.v.).

[3] = Blood pressure in chloralose anesthetized cats (BP SND/MAX); format: in vivo; conditions: i.v., blood pressure in percent control at the dose causing 50% depression in SND
Procedure: BP SND/MAX: The blood pressure of the chloralose anesthetized cats in percent control at the dose causing 50% depression in SND and the maximum reduction in blood pressure as percent of the control blood pressure in the same animals observed in the dose range tested (0.001-1.0 mg/kg i.v.).

[4] = molecular target: T1, 5-hydroxytryptamine (5-HT1A) receptor (Bos taurus, UniProt F6Q2H9); assay: Inhibition of 8-OH-DPAT binding in a bovine brain homogenate (5-HT1A binding)
T1 construct: bovine brain homogenate; from tissue; host or cells: bovine brain homogenate
T1 sequence (F6Q2H9 1-422): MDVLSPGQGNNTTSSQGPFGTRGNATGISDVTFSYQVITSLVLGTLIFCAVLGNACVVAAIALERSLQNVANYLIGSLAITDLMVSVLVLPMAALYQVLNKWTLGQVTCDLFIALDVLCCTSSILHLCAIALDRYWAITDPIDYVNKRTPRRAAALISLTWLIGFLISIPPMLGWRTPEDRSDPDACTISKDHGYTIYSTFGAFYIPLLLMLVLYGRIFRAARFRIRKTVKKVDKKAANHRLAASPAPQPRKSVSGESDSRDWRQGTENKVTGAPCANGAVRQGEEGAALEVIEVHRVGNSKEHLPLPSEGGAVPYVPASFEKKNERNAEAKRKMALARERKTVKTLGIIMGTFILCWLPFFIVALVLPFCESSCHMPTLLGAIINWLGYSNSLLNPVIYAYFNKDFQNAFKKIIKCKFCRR
Description: Binding: Inhibition of 8-OH-DPAT binding in a bovine brain homogenate. Potency is given as nM dose required to inhibit 50% of DPAT binding (IC50). This test measures ability to bind to 5-hydroxytryptamine (5-HT1A) receptor.

dopamine receptors = conditions: cited from earlier work
[5] = Chem. Ab., 79:146294b; cited from earlier work
D2 receptor = D2 receptor (Homo sapiens, UniProt P14416); assay: Dopamine D2 receptor in vitro binding
Description: The compounds of this invention where R1 is in the 8 position in the aromatic ring are very selective 5-HT1A receptor agonists having little or no dopaminergic activity. […] Both these features are beneficial to effective clinical treatment.

[6] = J. Pharm. Sci., 67, 880-82 (1978); cited from earlier work
[7] = some patients; cited from earlier work

Sequence of D2 receptor (P14416 whole entry): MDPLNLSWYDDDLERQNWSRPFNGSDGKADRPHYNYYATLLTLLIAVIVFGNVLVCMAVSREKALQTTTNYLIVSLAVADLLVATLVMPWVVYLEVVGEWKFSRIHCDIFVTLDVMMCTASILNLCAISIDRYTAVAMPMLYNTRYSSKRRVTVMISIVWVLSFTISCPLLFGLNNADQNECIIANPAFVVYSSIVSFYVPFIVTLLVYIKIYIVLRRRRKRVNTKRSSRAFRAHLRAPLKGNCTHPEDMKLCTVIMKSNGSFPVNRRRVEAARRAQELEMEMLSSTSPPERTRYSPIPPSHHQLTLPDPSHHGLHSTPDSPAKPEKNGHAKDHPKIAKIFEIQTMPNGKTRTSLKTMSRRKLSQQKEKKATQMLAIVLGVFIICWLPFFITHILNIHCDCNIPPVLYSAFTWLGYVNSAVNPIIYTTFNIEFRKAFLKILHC

IC50 ([4]; read-out: 5-HT1A Binding IC50) [nM]	Structure (SMILES)	ED50 [1] [mg/kg]	ED50 [2] [mg/kg]	% BD (at SND ED50) [3] [%]	further results
	C=CCN[C@@H]1CCc2cccc(OC)c2[C@@H]1CC=C (relative stereo) [Example 26 Compound 1, Cis-(+-)-1,2,3,4-Tetrahydro-8-methoxy-N,1-di-(2-pro-penyl)-2-naphthalenamine hydrochloride]	2.31	0.16	70.0	
	C=CCN(CC=C)C1CCc2ccccc2C1.Cl (racemic) [Example 21 Compound 6, (+-)-1,2,3,4-Tetrahydro-N,N-di-2-propenyl-2-naphthalenamine hydrochloride]	0.97	0.6	52.0	IC50 [4]: 50.7 nM
103	c1ccc2c(c1)CCC(N1CCCCCC1)C2 (stereo not shown) [Compound 57-3, Hexahydro-1-(1,2,3,4-tetrahydro-2-naphthalenyl)-1H-Azepine]	2.3	0.62	75.0	
	O=C1CC2(CCCC2)CC(=O)N1CCCCN1CCN(c2ncccn2)CC1 [Buspirone]				dopamine receptor antagonism (dopamine receptors): antagonizes dopamine receptors at the same dose it stimulates 5-HT1A receptors
	CN(C)C1CCc2ccc(O)cc2C1(C)C (stereo not shown) [1,1-Dimethyl-2-(N,N-dimethylamino)-7-hydroxytetralin]				analgesic and intestinal movement accelerating actions [5]: analgesic and intestinal movement accelerating actions
	C=CCNC1CCc2cccc(OC)c2C1.Cl (stereo not shown) [Example 15 Compound 27, 1,2,3,4-Tetrahydro-8-methoxy-N-2-propenyl-2-naphthalenamine hydrochloride]	0.31	0.1	62.0	IC50 [4]: 8.9 nM
26	NC(=O)c1cccc2c1CC(N1CCCCCC1)CC2 (stereo not shown) [Compound 58-1, (1-Hexahydroazepinyl)-5,6,7,8-tetrahydronaphthalene-1-carboxamide]	2.3			IC50 (D2 receptor): > 1000 nM
	C=CCNC1CCc2cccc(O)c2C1.Cl (stereo not shown) [Example 19 Compound 2, 5,6,7,8-tetrahydro-7-(2-propenyl)amino-1-naphthalenol hydrochloride]	0.73	0.01	78.0	IC50 [4]: 3.5 nM
	C=CCN(C)C1CCc2cccc(OC)c2C1.Cl (stereo not shown) [Example 15 Compound 12, 1,2,3,4-Tetrahydro-8-methoxy-N-methyl-N-2-propenyl-2-Naphthalenamine hydrochloride]	1.2	0.012	79.0	IC50 [4]: 7.9 nM
4	Brc1cccc2c1CC(N1CCCC1)CC2 (single isomer, unassigned; (+)) [Compound 59-1, (+)-1,2,3,4-tetrahydro-2-pyrrolidino-8-bromo-tetralin]				
	COc1cccc2c1CCC(NC1CC1)C2C (stereo not shown) [1-methyl-2-(cyclopropylamino)-5-methoxytetralin]				local anesthetic activity [6]: possess local anesthetic activity
10.9	NC(=O)c1cccc2c1CC(N1CCCC1)CC2 (single isomer, unassigned; (+)) [Compound 60-1, (+)-1,2,3,4-tetrahydro-2-pyrrolidino-naphthalene-8-yl-carboxamide]				
	CC1(C)CC(=O)N(CCCCN2CCN(c3ncccn3)CC2)C(=O)C1 [Gepirone]				dopamine receptor antagonism (dopamine receptors): has dopamine antagonist properties; effect on depressive endpoints [7]: ameliorative effects on some depressive endpoints in some patients

Structure (SMILES)	IC50 ([4]; read-out: 5-HT1A Binding IC50) [nM]	ED50 [1] [mg/kg]	ED50 [2] [mg/kg]	% BD (at SND ED50) [3] [%]	further results
CCCN(CC1CC1)C1CCc2cccc(C(N)=O)c2C1 (stereo not shown) [Example 5 Compound 2, 1,2,3,4-Tetrahydro-2-N-cyclopropylmethyl-2-N-propyl-8-yl-carboxamide]	13	0.31	0.33	40.0	
